Source: patent publication US7842805B2, “Pharmaceutical compounds as activators of caspases and inducers of apoptosis and the use thereof” (Myrexis, Inc., priority 2005, dated 2010)

Experiments:
T-47D [1] = test: Caspase cascade activation assay (Ac-DEVD-R110 fluorogenic substrate); type: cell-based, Human; conditions: T-47D (24 hr); for EC50: Homo sapiens, T47D, read-out: Caspase potency EC50; for Caspase activity (Ratio): ratio of net RFU of test compound to control
Protocol: Human breast cancer cell lines T-47D and DLD-1 were grown according to media component mixtures designated by American Type Culture Collection+10% FCS (Invitrogen Corporation), in a 5% CO2-95% humidity incubator at 37° C. T-47D and DLD-1 cells were maintained at a cell density between 50 and 80% confluency at a cell density of 0.1 to 0.6×10^6 cells/mL. Cells were harvested at 600×g and resuspended at 0.65×10^6 cells/mL into appropriate media+10% FCS. An aliquot of 22.5 μL of cells was added to a well of a 384-well microtiter plate containing 2.5 μL of a 10% DMSO in RPMI-1640 media solution containing 0.16 to 100 μM of benzo[d][1,2,3]triazin-4-yl-(4-methoxyphenyl)-methyl-amine or other test compound (0.016 to 10 μM final). An aliquot of 22.5 μL of cells was added to a well of a 384-well microtiter plate containing 2.5 μL of a 10% DMSO in RPMI-1640 media solution without test compound as the control sample. […] After incubation, the samples were removed from the incubator and 25 μL of a solution containing 14 μM of N—(Ac-DEVD)-N′-ethoxycarbonyl-R110 fluorogenic substrate (Cytovia, Inc.; WO99/18856), 20% sucrose (Sigma), 20 mM DTT (Sigma), 200 mM NaCl (Sigma), 40 mM Na PIPES buffer pH 7.2 (Sigma), and 500 μg/mL lysolecithin (Calbiochem) was added. The samples were mixed by agitation and incubated at room temperature. Using a fluorescent plate reader (Model SPECTRAfluor Plus, Tecan), an initial reading (T=0) was made approximately 1-2 min after addition of the substrate solution, employing excitation at 485 nm and emission at 530 nm, to determine the background fluorescence of the control sample. After the 3 h incubation, the samples were read for fluorescence as above (T=3 h).
The Relative Fluorescence Unit values (RFU) were used to calculate the sample readings as follows: RFU(T=3h)−Control RFU(T=0)=Net RFU(T=3h)
The activity of caspase cascade activation was determined by the ratio of the net RFU value for benzo[d][1,2,3]triazin-4-yl-(4-methoxy-phenyl)-methyl-amine or other test compounds to that of control samples. The EC50 (nM) was determined by a sigmoidal dose-response calculation (Prism 3.0, GraphPad Software Inc.).

H1299 = test: Inhibition of cell proliferation (GI50, CellTiter-Glo); type: cell-based; conditions: Homo sapiens, NCI-H1299; H1299 cells, 48 h
Protocol: (§1) T-47D, HT29, H1299, MX-1 and MDAMB435 cells were grown and harvested as in Example 29. An aliquot of […] of cells (4.4×10^4 cells/mL) was added to a well of a 96-well microtiter plate containing 5 μL of a 10% DMSO in RPMI-1640 media solution containing 10 nM to 100 μM of benzo[d][1,2,3]triazin-4-yl-(4-methoxy-phenyl)methyl-amine (1 nM to 10 μM final). An aliquot of 45 μL of cells was added to a well of a 96-well microtiter plate containing 5 μL of a 10% DMSO in RPMI-1640 media solution without compound as the control sample for maximal cell proliferation (LMax). The samples were mixed by agitation and then incubated at 37° C. for 48 h in a 5% CO2-95% humidity incubator. After incubation, the samples were removed from the incubator and 25 μL of CellTiter-Glo™ reagent (Promega) was added. The samples were mixed by agitation and incubated at room temperature for 10-15 min. Plates were then read using a luminescent plate reader (Model SPECTRAfluor Plus, Tecan) to give Ltest values.
(§2) Baseline for GI50 (dose for 50% inhibition of cell proliferation) of initial cell numbers was determined by adding an aliquot of 45 μL of cells or 45 μL of media, respectively, to wells of a 96-well microtiter plate containing 5 μL of a 10% DMSO in RPMI-1640 media solution. The samples were mixed by agitation and then incubated at 37° C. for 0.5 h in a 5% CO2-95% humidity incubator. After incubation, the samples were removed from the incubator and 25 μL of CellTiter-Glo™ reagent (Promega) was added. The samples were mixed by agitation and incubated at 37° C. for 10-15 min at room temperature in a 5% CO2-95% humidity incubator. Fluorescence was read as above, (Lstart) defining luminescence for initial cell number used as baseline in GI50 determinations.
(§3) GI50 (dose for 50% inhibition of cell proliferation) is the concentration where [(LTest−Lstart)/(LMax−Lstart)]=0.5.

HT29 = test: as above; type: cell-based; conditions: Homo sapiens, HT-29; HT29 cells, 48 h
Protocol: as §1, §2, §3

MDAMB435 = test: as above; type: cell-based; conditions: Homo sapiens, MDA-MB-435; MDAMB435 cells, 48 h
Protocol: as §1, §2, §3

MX-1 = test: as above; type: cell-based; conditions: Homo sapiens, MX1; MX-1 cells, 48 h
Protocol: as §1, §2, §3

T-47D [2] = test: as above; type: cell-based; conditions: Homo sapiens, T47D; T-47D cells, 48 h
Protocol: as §1, §2, §3

EC50 (T-47D [1]) | GI50 (H1299) | GI50 (HT29) | GI50 (MDAMB435) | GI50 (T-47D [2]) | Compound | Caspase activity (Ratio) (T-47D [1]) | GI50 (MX-1)
16 nM | 40 nM | 50 nM | 7 nM | 50 nM | COc1ccc(N(C)c2nnnc3ccccc23)cc1 [Example 1, Benzo[d][1,2,3]triazin-4-yl-(4-methoxy-phenyl)-methyl-amine] | 9.3 | 50 nM
106 nM | 106 nM | 200 nM | 62 nM | 120 nM | COc1ccc(N(C)c2nncc3ccccc23)cc1 [Example 2, (4-Methoxy-phenyl)-methyl-phthalazin-1-yl-amine] | 11.1 | 52 nM
